US20250042924A1, “WATER-SOLUBLE PHYTIN” (OTSUKA PHARMACEUTICAL CO., LTD., priority 2021, published 2025)

Legend:
[1] = tested on: rat small intestine powder (enzyme solution); assay: Test Example 2 purine nucleotide metabolism inhibitory activity (inosine monophosphate substrate, HPLC); type: biochemical; conditions: 37° C., 30 minutes
Description: Ca(OH)2 (Inoue Calcium Corporation) as a calcium source, Mg(OH)2 (Tomita Pharmaceutical Co., Ltd.) as a magnesium source, KOH (NIPPON SODA CO., LTD.) as a potassium source, NaOH (Tosoh Corporation) as a sodium source were placed in a 50 mL PP tube (IWAKI) at molar ratios of the minerals shown in Table 2. Then a commercially available phytic acid solution (product name: phytic acid (IP6), TSUNO Food Industrial co., ltd.) 0.426 mL (containing 0.296 g of phytic acid) was placed therein. Distilled water (Otsuka Pharmaceutical Factory, Inc.) was added thereto to make up the volume to 30 mL. The mixture was stirred for 30 seconds using a vortex mixer, followed by ultrasonication (ASONE) for 60 seconds to prepare a test solution containing phytin with various mineral compositions.
As a positive control, a test solution containing a commercially available phytin (phytin (IP6), TSUNO Food Industrial co., ltd.) was prepared at the same concentration of phytic acid as the other test solutions.
A 100 mg/mL of solution of rat small intestine powder (Clare Japan, Inc.) in the assay buffer was used as an enzyme solution. Inosine monophosphate (Sigma-Aldrich) was diluted with the assay buffer to the concentration of 9 mM to prepare a substrate solution. Enzymatic reaction was performed using a 96 well plate (Thermo Fisher Scientific) in the following manner. […]

[2] = Test Example 4 stability (deliquescence); type: physicochemical; set-up: key: “Deliquesced” refers to a change where the sample completely liquefied to become starch syrup-like; “Partially-deliquesced” refers to a change where a part of the sample deliquesced or solidified.; “No change” refers to a no change in state of the sample; conditions: 200 mg, 25° C., humidity 75.3%, 64 hours
Description: Ca(OH)2 (Inoue Calcium Corporation) as a calcium source, Mg(OH)2 (Tomita Pharmaceutical Co., Ltd.) as a magnesium source, KOH (NIPPON SODA CO., LTD.) as a potassium source, NaOH (Tosoh Corporation) as a sodium source were placed in a 50 mL PP tube (IWAKI) at the molar ratios of minerals shown in Table 3. Then a commercially available phytic acid solution (product name: phytic acid (IP6), TSUNO Food Industrial co., ltd.) 0.426 mL (containing 0.296 g of phytic acid) was placed therein. Distilled water (Otsuka Pharmaceutical Factory, Inc.) was added thereto to make up the volume to 30 mL. The mixture was stirred for 30 seconds using a vortex mixer, followed by ultrasonication (ASONE) for 60 seconds. This operation of stirring and ultrasonication was repeated three times in total. Then the mixture was adjusted to pH 4.0±0.2 with hydrochloric acid and pre-frozen at −80° C. The pre-frozen mixture was freeze-dried by using a freeze dryer to provide a completely powdered phytin. The completely powdered phytin was used as a sample.
As positive controls, a sample of phytic acid (powder) prepared following the above procedure without adding any mineral component, and a commercially available phytic acid powder product (product name: Powdered phytic acid, FUSO CHEMICAL CO., LTD.) were used. […]

O=P(O)(O)O[C@H]1[C@H](OP(=O)(O)O)[C@@H](OP(=O)(O)O)[C@H](OP(=O)(O)O)[C@@H](OP(=O)(O)O)[C@H]1OP(=O)(O)O [Phytic acid (PA), phytic acid]
enzyme inhibitory activity [1]: around 30% | Deliquescence [2]: Deliquesced | Deliquescence ([2]; listed as phytic acid sample): deliquesced
